Reference: PMC8500670, “A selective WDR5 degrader inhibits acute myeloid leukemia in patient-derived mouse models” (Science translational medicine, 2021)

Columns and labels:
Test in all cases: biochemical
Set-up in all cases: GPCR, ion channel and transporter panel, per cent inhibition of binding, mean of four
5-HT2B = biological target: T1, 5-HT2B (Homo sapiens, UniProt P41595)
T1 construct: gene HTR2B
Method: (§1) We next assessed selectivity of MS67 against 22 protein methyltransferases (table S2) and a broad panel of common drug targets including 45 kinases (table S3) and 44 G protein–coupled receptors (GPCR), ion channels, and transporters (table S4). […] We subsequently determined that MS67 had moderate binding affinity (Ki = 1.0 ± 0.8 μM) to Sigma 2 receptor (fig. S10).

Alpha2B = biological target: T2, Alpha2B (Homo sapiens, UniProt P18089)
T2 construct: gene ADRA2B
Method: as §1

D4 = biological target: T3, D4 (Homo sapiens, UniProt P21917)
T3 construct: gene DRD4
Method: as §1

5-HT1E = biological target: T4, 5-HT1E (Homo sapiens, UniProt P28566)
T4 construct: gene HTR1E
Method: as §1

5-HT6 = biological target: T5, 5-HT6 (Homo sapiens, UniProt P50406)
T5 construct: gene HTR6
Method: as §1

D5 = biological target: T6, D5 (Homo sapiens, UniProt P21918)
T6 construct: gene DRD5
Method: as §1

H3 = biological target: T7, H3 (Homo sapiens, UniProt Q9Y5N1)
T7 construct: gene HRH3
Method: as §1

H4 = biological target: T8, H4 (Homo sapiens, UniProt Q9H3N8)
T8 construct: gene HRH4
Method: as §1

NET = biological target: T9, NET (Homo sapiens, UniProt P23975)
T9 construct: gene SLC6A2
Method: as §1

5-HT1D = biological target: T10, 5-HT1D (Homo sapiens, UniProt P28221)
T10 construct: gene HTR1D
Method: as §1

M3 = biological target: T11, M3 (Homo sapiens, UniProt P20309)
T11 construct: gene CHRM3
Method: as §1

D1 = biological target: T12, D1 (Homo sapiens, UniProt P21728)
T12 construct: gene DRD1
Method: as §1

Alpha1D = biological target: T13, Alpha1D (Homo sapiens, UniProt P25100)
T13 construct: gene ADRA1D
Method: as §1

KOR = biological target: T14, KOR (Homo sapiens, UniProt P41145)
T14 construct: gene OPRK1
Method: as §1

Beta3 = biological target: T15, Beta3 (Homo sapiens, UniProt P13945)
T15 construct: gene ADRB3
Method: as §1

5-HT3 = biological target: T16, 5-HT3 (Homo sapiens, UniProt P46098)
T16 construct: gene HTR3A
Method: as §1

5-HT7A = biological target: T17, 5-HT7A (Homo sapiens, UniProt P34969)
T17 construct: gene HTR7; isoform 7A
Method: as §1

M4 = biological target: T18, M4 (Homo sapiens, UniProt P08173)
T18 construct: gene CHRM4
Method: as §1

Alpha2A = biological target: T19, Alpha2A (Homo sapiens, UniProt P08913)
T19 construct: gene ADRA2A
Method: as §1

D2 = biological target: T20, D2 (Homo sapiens, UniProt P14416)
T20 construct: gene DRD2
Method: as §1

Sigma 2 = biological target: T21, Sigma 2 (Homo sapiens, UniProt Q5BJF2)
T21 construct: gene TMEM97
Method: as §1

MOR = biological target: T22, MOR (Homo sapiens, UniProt P35372)
T22 construct: gene OPRM1
Method: as §1

5-HT2A = biological target: T23, 5-HT2A (Homo sapiens, UniProt P28223)
T23 construct: gene HTR2A
Method: as §1

Beta1 = biological target: T24, Beta1 (Homo sapiens, UniProt P08588)
T24 construct: gene ADRB1
Method: as §1

M1 = biological target: T25, M1 (Homo sapiens, UniProt P11229)
T25 construct: gene CHRM1
Method: as §1

H1 = biological target: T26, H1 (Homo sapiens, UniProt P35367)
T26 construct: gene HRH1
Method: as §1

T20 sequence (P14416 whole entry): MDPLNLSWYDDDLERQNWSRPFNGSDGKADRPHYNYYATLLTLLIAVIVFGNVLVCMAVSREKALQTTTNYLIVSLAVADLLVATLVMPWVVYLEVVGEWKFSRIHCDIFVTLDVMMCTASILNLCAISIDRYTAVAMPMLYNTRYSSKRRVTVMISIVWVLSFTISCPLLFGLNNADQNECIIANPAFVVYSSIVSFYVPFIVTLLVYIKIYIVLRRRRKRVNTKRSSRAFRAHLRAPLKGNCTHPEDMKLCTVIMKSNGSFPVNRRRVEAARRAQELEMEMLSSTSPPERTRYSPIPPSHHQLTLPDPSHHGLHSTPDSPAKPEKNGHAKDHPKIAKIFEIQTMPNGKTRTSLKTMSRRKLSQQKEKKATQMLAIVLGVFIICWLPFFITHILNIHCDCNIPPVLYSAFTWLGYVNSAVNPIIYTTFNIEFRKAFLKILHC
T5 sequence (P50406 whole entry): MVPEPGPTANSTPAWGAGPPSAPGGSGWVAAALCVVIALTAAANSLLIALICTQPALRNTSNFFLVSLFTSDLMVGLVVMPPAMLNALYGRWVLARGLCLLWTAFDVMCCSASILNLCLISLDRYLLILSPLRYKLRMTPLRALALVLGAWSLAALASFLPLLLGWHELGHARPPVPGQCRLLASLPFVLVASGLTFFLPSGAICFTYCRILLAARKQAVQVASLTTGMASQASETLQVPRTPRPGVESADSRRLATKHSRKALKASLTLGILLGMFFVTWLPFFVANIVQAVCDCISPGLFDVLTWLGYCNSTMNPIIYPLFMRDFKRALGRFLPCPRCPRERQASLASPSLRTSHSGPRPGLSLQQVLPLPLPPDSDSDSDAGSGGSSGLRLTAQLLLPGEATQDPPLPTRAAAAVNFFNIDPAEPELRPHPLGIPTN
T19 sequence (P08913 whole entry): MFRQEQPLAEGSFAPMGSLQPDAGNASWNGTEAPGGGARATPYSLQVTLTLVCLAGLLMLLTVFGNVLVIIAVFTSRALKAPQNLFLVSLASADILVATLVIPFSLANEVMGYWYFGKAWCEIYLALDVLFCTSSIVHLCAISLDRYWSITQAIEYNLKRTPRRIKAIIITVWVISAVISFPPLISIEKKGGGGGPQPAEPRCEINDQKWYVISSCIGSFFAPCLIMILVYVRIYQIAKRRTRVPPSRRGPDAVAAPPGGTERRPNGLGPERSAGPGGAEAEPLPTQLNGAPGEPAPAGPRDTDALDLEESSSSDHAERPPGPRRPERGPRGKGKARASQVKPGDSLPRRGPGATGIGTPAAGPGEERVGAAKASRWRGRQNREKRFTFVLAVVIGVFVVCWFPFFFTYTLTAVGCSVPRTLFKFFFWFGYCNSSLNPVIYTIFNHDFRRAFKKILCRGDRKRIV
T8 sequence (Q9H3N8 whole entry): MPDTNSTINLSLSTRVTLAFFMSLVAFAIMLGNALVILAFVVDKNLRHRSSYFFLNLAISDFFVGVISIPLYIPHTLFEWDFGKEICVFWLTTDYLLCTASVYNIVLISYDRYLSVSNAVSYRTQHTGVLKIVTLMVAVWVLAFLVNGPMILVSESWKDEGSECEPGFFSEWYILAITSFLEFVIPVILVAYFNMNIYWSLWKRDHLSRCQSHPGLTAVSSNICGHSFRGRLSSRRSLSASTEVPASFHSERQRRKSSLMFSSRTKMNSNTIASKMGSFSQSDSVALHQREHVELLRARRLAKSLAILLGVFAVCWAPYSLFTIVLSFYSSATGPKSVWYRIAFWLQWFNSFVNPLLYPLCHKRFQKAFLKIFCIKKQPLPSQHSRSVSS
T6 sequence (P21918 whole entry): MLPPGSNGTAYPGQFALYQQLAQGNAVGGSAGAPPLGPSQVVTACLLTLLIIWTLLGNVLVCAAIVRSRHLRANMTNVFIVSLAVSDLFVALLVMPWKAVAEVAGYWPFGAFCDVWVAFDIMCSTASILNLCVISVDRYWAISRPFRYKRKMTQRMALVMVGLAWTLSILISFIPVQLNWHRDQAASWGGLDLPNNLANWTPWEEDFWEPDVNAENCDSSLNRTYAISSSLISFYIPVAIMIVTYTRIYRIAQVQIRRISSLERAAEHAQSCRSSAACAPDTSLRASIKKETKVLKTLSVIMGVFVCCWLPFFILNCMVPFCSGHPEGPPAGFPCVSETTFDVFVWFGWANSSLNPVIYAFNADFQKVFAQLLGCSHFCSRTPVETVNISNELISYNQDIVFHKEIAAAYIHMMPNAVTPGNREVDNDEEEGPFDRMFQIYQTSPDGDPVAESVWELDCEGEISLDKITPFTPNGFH
T14 sequence (P41145 whole entry): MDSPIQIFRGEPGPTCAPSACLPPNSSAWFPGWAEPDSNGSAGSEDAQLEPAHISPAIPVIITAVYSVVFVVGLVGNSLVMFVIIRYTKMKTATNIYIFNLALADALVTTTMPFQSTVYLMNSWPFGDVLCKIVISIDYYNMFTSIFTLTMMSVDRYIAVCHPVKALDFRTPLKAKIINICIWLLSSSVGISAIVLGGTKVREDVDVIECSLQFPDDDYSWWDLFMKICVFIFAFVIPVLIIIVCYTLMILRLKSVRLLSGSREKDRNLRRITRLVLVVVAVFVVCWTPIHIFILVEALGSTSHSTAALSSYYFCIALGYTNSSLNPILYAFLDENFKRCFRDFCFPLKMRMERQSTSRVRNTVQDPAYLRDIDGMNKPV
T9 sequence (P23975 whole entry): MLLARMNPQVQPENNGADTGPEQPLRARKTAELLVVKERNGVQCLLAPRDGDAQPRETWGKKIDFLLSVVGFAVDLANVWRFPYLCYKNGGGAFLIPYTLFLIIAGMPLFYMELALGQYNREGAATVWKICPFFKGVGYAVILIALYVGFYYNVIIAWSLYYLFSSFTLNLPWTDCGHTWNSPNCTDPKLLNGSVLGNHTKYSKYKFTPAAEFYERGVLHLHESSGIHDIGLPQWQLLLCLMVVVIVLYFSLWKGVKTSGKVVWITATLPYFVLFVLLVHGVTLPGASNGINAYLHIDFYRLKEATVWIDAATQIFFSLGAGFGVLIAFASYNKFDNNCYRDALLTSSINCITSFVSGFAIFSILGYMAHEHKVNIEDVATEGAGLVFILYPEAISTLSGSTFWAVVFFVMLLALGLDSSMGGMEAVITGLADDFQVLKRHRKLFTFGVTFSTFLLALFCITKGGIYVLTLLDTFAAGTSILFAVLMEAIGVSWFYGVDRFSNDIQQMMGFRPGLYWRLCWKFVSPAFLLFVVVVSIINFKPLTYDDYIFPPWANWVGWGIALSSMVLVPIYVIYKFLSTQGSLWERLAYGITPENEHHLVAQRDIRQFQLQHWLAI
T15 sequence (P13945 whole entry): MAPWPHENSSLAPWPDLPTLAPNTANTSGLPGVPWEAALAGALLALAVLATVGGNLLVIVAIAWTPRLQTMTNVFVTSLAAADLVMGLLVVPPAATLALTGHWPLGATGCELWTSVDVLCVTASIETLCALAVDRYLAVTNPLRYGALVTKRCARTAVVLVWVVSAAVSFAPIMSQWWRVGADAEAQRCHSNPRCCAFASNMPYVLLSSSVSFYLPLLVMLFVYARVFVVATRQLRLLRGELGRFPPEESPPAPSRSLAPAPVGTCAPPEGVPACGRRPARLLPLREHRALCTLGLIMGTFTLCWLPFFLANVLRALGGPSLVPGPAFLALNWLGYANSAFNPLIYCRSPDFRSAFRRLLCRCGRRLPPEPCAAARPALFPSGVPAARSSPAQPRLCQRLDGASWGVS
T24 sequence (P08588 whole entry): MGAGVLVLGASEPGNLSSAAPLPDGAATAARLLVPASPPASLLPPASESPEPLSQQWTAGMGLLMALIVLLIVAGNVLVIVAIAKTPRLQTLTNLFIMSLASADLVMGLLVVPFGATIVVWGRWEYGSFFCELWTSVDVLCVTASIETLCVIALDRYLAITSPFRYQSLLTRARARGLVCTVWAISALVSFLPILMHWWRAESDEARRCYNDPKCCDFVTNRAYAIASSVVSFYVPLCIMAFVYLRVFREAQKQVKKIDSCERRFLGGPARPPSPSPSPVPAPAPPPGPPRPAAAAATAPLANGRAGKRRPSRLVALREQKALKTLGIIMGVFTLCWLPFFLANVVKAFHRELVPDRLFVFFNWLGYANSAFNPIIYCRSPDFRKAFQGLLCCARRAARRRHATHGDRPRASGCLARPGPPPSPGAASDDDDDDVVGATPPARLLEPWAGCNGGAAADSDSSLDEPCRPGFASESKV
T2 sequence (P18089 whole entry): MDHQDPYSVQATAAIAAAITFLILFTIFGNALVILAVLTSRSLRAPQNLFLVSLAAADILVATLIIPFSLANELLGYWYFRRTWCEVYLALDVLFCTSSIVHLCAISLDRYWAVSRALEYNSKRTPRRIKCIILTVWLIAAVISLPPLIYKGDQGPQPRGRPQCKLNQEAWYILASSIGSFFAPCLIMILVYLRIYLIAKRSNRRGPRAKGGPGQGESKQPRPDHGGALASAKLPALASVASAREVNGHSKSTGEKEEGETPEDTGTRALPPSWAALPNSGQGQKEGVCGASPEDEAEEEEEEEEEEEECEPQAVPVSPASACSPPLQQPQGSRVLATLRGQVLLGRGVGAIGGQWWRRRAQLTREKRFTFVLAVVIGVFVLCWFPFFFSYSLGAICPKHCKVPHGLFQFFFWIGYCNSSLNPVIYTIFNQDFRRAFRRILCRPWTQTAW
T3 sequence (P21917 whole entry): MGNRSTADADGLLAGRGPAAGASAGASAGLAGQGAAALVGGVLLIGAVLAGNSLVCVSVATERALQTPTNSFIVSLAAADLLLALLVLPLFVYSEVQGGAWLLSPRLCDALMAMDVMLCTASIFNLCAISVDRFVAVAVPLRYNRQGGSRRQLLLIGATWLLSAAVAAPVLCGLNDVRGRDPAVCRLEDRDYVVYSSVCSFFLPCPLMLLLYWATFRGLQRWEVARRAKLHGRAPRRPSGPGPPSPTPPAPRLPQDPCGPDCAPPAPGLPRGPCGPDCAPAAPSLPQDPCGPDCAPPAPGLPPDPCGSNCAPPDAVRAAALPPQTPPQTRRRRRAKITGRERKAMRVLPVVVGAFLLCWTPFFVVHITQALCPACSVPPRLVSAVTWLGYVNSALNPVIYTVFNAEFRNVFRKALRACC

SMILES: Cc1ncsc1-c1ccc([C@H](C)NC(=O)[C@@H]2C[C@@H](O)CN2C(=O)[C@@H](NC(=O)CNC(=O)c2ccc(F)c(-c3ccc(N4C[C@@H](C)N(C)[C@@H](C)C4)c(NC(=O)c4c[nH]c(=O)cc4C(F)(F)F)c3)c2)C(C)(C)C)cc1 [MS67]
- inhibition at 1 µM (5-HT2B): 9.31%
- inhibition at 1 µM (Alpha2B): 21.1%
- inhibition at 1 µM (D4): 5.81%
- inhibition at 1 µM (5-HT1E): 0.02%
- inhibition at 1 µM (5-HT6): 13.7%
- inhibition at 1 µM (D5): 22.1%
- inhibition at 1 µM (H3): 21.1%
- inhibition at 1 µM (H4): 21.9%
- inhibition at 1 µM (NET): -8.91%
- inhibition at 1 µM (5-HT1D): 41.7%
- inhibition at 1 µM (M3): 23.9%
- inhibition at 1 µM (D1): 18.7%
- inhibition at 1 µM (Alpha1D): 28.5%
- inhibition at 1 µM (KOR): 26.3%
- inhibition at 1 µM (Beta3): 32%
- inhibition at 1 µM (5-HT3): 26.6%
- inhibition at 1 µM (5-HT7A): 12%
- inhibition at 1 µM (M4): 30.9%
- inhibition at 1 µM (Alpha2A): 21.3%
- inhibition at 1 µM (D2): 25.5%
- inhibition at 1 µM (Sigma 2): 66.6%
- inhibition at 1 µM (MOR): 21.7%
- inhibition at 1 µM (5-HT2A): 11%
- inhibition at 1 µM (Beta1): 16.9%
- inhibition at 1 µM (M1): 43.6%
- inhibition at 1 µM (H1): 15.9%
